{
  "source": "patent US11767310B2",
  "about": "“Nicotinamide RIPK1 inhibitors” (AbbVie Inc., priority 2021, dated 2023)",
  "assay_in_all_cases": "Kinase binding screen",
  "key": {"ABL2": {"target": "ABL2 (Homo sapiens (Human), UniProt P42684)", "conditions": "read-out: Percent Control at 100 nM Compound Concentration"}, "AMPK-alpha1": {"target": "AMPK-alpha1 (Homo sapiens (Human), UniProt Q13131)", "conditions": "read-out: Percent Control at 100 nM Compound Concentration"}, "AURKC": {"target": "AURKC (Homo sapiens (Human), UniProt Q9UQB9)", "conditions": "read-out: Percent Control at 100 nM Compound Concentration"}, "BLK": {"target": "BLK (Homo sapiens (Human), UniProt P51451)", "conditions": "read-out: Percent Control at 100 nM Compound Concentration"}, "CDKL2": {"target": "CDKL2 (Homo sapiens (Human), UniProt Q92772)", "conditions": "read-out: Percent Control at 100 nM Compound Concentration"}, "DCAMKL2": {"target": "DCAMKL2 (Homo sapiens (Human), UniProt Q8N568)", "conditions": "read-out: Percent Control at 100 nM Compound Concentration"}, "DMPK2": {"target": "DMPK2 (Homo sapiens (Human), UniProt Q6DT37)", "conditions": "read-out: Percent Control at 100 nM Compound Concentration"}, "EGFR(S752-I759del)": {"target": "EGFR(S752-I759del) (Homo sapiens (Human), UniProt P00533, DEL752-759)", "conditions": "read-out: Percent Control at 100 nM Compound Concentration"}, "FER": {"target": "FER (Homo sapiens (Human), UniProt P16591)", "conditions": "read-out: Percent Control at 100 nM Compound Concentration"}, "FLT3": {"target": "FLT3 (Homo sapiens (Human), UniProt P36888)", "conditions": "read-out: Percent Control at 100 nM Compound Concentration"}, "FLT3(ITD,D835V)": {"system": "FLT3(ITD,D835V)", "design": "species or system human"}, "GRK2": {"target": "GRK2 (Homo sapiens (Human), UniProt P25098)", "sequence (P25098 whole entry)": "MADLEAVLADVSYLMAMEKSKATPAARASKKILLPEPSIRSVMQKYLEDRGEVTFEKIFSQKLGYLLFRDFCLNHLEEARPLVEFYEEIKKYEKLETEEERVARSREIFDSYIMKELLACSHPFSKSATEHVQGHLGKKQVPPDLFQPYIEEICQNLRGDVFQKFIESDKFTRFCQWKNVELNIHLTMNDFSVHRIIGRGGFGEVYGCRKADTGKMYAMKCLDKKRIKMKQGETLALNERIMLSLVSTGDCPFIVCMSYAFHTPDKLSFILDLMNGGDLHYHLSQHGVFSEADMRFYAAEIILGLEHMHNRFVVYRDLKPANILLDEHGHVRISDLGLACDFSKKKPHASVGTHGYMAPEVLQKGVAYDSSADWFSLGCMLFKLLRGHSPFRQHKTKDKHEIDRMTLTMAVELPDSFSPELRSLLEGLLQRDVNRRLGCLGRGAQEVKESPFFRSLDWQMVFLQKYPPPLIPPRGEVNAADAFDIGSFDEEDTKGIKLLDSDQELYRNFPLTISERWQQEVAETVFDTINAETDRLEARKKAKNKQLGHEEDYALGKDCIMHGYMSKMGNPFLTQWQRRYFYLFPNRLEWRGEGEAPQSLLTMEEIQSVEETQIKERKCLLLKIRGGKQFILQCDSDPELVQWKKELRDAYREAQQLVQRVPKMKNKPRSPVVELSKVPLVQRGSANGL", "conditions": "read-out: Percent Control at 100 nM Compound Concentration"}, "HIPK1": {"target": "HIPK1 (Homo sapiens (Human), UniProt Q86Z02)", "conditions": "read-out: Percent Control at 100 nM Compound Concentration"}, "IRAK1": {"target": "IRAK1 (Homo sapiens (Human), UniProt P51617)", "conditions": "read-out: Percent Control at 100 nM Compound Concentration"}, "IRAK4": {"target": "IRAK4 (Homo sapiens (Human), UniProt Q9NWZ3)", "sequence (Q9NWZ3 whole entry)": "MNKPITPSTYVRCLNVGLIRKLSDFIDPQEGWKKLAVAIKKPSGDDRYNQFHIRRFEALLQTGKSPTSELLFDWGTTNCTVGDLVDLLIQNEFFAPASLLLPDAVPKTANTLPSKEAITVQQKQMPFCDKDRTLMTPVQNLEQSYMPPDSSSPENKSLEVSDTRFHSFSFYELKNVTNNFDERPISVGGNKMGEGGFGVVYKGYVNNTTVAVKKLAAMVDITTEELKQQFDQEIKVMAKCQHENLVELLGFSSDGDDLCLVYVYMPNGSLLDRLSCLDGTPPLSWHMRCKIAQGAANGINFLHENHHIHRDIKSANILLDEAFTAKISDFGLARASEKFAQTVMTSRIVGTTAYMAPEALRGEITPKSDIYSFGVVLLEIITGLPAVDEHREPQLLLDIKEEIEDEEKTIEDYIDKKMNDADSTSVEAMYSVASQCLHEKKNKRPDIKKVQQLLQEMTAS", "conditions": "read-out: Percent Control at 100 nM Compound Concentration"}, "[1]": {"target": "JAK2(JH1domain-catalytic) (Homo sapiens (Human), UniProt O60674)", "conditions": "read-out: Percent Control at 100 nM Compound Concentration"}, "MAP3K15": {"target": "MAP3K15 (Homo sapiens (Human), UniProt Q6ZN16)", "conditions": "read-out: Percent Control at 100 nM Compound Concentration"}, "MEK3": {"target": "MEK3 (Homo sapiens (Human), UniProt P46734)", "sequence (P46734 whole entry)": "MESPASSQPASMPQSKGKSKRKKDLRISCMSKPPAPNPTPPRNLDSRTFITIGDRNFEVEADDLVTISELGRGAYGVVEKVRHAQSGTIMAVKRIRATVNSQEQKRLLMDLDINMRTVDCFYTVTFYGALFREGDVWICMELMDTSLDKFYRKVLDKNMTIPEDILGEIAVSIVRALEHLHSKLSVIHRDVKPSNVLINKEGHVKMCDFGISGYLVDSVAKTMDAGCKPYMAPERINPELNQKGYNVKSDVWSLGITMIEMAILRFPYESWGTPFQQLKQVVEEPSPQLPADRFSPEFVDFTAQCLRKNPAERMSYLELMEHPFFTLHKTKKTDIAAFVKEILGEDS", "conditions": "read-out: Percent Control at 100 nM Compound Concentration"}, "MLK1": {"target": "MLK1 (Homo sapiens (Human), UniProt P80192)", "sequence (P80192 whole entry)": "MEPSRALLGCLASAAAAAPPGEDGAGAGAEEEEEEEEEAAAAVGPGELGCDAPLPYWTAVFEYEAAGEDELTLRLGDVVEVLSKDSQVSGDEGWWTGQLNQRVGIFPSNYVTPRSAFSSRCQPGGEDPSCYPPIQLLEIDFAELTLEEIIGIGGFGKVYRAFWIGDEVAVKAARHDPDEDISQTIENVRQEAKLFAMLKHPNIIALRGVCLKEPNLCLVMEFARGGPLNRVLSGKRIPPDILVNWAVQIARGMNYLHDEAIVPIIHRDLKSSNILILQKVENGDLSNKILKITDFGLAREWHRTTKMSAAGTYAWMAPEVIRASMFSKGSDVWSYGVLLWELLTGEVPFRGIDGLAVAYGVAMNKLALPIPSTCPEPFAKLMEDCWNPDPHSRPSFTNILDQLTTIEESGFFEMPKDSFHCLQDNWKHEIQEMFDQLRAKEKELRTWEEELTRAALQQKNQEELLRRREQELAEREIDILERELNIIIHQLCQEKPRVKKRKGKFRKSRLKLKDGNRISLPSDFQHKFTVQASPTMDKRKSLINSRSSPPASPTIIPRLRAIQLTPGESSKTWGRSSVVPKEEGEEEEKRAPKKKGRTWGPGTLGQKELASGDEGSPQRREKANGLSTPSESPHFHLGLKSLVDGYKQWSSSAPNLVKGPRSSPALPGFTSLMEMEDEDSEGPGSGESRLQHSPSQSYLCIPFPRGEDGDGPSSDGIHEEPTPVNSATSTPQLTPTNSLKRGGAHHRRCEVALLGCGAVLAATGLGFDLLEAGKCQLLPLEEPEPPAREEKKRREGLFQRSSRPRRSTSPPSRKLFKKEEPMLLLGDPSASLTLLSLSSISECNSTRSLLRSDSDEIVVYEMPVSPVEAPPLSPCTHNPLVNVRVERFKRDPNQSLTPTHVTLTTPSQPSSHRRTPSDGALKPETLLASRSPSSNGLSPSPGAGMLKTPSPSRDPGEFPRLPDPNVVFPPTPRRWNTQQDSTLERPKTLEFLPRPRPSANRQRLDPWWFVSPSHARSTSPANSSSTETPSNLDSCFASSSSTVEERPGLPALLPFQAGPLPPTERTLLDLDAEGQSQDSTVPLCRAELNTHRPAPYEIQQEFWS", "conditions": "read-out: Percent Control at 100 nM Compound Concentration"}, "MRCKA": {"target": "MRCKA (Homo sapiens (Human), UniProt Q5VT25)", "conditions": "read-out: Percent Control at 100 nM Compound Concentration"}, "PCTK2": {"target": "PCTK2 (Homo sapiens (Human), UniProt Q00537)", "conditions": "read-out: Percent Control at 100 nM Compound Concentration"}, "PIK3CB": {"target": "PIK3CB (Homo sapiens (Human), UniProt P42338)", "conditions": "read-out: Percent Control at 100 nM Compound Concentration"}, "PRKD2": {"target": "PRKD2 (Homo sapiens (Human), UniProt Q9BZL6)", "sequence (Q9BZL6 whole entry)": "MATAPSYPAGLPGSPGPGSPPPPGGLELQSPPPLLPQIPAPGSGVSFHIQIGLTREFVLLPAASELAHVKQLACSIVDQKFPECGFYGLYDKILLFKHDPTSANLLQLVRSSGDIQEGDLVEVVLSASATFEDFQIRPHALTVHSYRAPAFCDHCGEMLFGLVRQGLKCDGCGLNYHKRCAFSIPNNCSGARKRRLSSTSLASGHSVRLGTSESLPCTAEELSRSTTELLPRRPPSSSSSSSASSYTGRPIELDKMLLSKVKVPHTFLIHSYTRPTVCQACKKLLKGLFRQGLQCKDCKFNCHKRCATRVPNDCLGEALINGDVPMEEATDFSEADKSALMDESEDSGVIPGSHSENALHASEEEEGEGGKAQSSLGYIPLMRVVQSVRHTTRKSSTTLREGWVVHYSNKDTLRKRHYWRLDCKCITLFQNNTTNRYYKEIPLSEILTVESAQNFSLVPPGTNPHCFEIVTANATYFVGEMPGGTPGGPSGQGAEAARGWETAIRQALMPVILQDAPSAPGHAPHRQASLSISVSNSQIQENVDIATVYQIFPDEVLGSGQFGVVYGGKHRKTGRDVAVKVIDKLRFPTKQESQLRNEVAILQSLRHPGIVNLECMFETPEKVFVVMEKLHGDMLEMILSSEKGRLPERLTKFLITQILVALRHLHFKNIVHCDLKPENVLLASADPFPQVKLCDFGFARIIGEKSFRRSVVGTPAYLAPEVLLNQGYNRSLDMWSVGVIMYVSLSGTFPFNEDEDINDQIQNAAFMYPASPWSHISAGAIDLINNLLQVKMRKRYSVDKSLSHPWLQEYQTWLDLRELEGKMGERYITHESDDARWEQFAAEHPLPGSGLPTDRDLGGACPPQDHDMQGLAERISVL", "conditions": "read-out: Percent Control at 100 nM Compound Concentration"}, "ROCK1": {"target": "ROCK1 (Homo sapiens (Human), UniProt Q13464)", "conditions": "read-out: Percent Control at 100 nM Compound Concentration"}, "ROCK2": {"target": "ROCK2 (Homo sapiens (Human), UniProt O75116)", "conditions": "read-out: Percent Control at 100 nM Compound Concentration"}, "STK35": {"target": "STK35 (Homo sapiens (Human), UniProt Q8TDR2)", "conditions": "read-out: Percent Control at 100 nM Compound Concentration"}, "TSSK1B": {"target": "TSSK1B (Homo sapiens (Human), UniProt Q9BXA7)", "conditions": "read-out: Percent Control at 100 nM Compound Concentration"}, "ULK1": {"target": "ULK1 (Homo sapiens (Human), UniProt O75385)", "conditions": "read-out: Percent Control at 100 nM Compound Concentration"}, "WEE1": {"target": "WEE1 (Homo sapiens (Human), UniProt P30291)", "conditions": "read-out: Percent Control at 100 nM Compound Concentration"}, "YSK4": {"target": "YSK4 (Homo sapiens (Human), UniProt Q56UN5)", "sequence (Q56UN5 whole entry)": "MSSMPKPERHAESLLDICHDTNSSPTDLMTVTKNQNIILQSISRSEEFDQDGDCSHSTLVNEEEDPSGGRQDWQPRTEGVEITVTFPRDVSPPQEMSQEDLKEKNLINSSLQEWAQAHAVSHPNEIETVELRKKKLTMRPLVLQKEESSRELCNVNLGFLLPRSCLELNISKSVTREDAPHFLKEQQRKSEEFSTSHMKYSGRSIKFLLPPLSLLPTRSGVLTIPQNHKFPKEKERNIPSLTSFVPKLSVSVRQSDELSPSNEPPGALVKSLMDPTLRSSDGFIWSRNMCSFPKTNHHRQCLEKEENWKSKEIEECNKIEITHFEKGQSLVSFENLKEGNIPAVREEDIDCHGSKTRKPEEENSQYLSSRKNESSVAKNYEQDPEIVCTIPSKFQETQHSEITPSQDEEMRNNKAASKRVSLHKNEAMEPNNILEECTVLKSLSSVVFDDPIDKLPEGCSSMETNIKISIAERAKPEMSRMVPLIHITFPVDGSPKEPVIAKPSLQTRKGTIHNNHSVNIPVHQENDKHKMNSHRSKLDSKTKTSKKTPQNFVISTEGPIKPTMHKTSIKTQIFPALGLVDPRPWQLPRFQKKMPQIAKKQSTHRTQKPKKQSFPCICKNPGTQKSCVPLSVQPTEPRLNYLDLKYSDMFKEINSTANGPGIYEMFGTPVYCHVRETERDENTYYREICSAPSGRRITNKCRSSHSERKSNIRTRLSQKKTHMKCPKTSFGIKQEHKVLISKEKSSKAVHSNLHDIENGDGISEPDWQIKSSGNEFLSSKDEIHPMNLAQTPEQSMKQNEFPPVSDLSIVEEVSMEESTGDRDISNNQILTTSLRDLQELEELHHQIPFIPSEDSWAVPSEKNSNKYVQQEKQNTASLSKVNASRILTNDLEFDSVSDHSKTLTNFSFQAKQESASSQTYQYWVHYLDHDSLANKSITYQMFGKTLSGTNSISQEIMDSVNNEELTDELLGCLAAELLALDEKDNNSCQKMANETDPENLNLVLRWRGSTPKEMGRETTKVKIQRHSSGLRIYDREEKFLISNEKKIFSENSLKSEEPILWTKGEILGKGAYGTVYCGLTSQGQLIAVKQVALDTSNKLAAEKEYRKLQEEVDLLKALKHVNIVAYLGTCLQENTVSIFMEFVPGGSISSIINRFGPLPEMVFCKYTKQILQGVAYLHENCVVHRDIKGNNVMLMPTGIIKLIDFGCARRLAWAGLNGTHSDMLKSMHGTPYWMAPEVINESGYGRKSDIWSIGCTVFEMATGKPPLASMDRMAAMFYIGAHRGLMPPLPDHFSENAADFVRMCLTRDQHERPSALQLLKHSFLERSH", "conditions": "read-out: Percent Control at 100 nM Compound Concentration"}},
  "note": "Read-outs that look alike come from different tables or passages of the source.",
  "data": [
    {"smiles": "CN(C[C@@H](O)Cc1ccccc1)C(=O)c1cncc(C#Cc2cnn(C(F)F)c2)c1", "note": "[Example 2, (S)-5-((1-(difluoromethyl)-1H-pyrazol-4-yl)ethynyl)-N-(2-hydroxy-3-phenylpropyl)-N-methylnicotinamide]", "values": [
      {"measurement": "remaining activity at 0.1 µM", "setting": "ABL2; ABL2", "result": 100, "unit": "%"},
      {"measurement": "remaining activity at 0.1 µM", "setting": "AMPK-alpha1; AMPK-alpha1", "result": 100, "unit": "%"},
      {"measurement": "remaining activity at 0.1 µM", "setting": "AURKC; AURKC", "result": 100, "unit": "%"},
      {"measurement": "remaining activity at 0.1 µM", "setting": "BLK; BLK", "result": 85, "unit": "%"},
      {"measurement": "remaining activity at 0.1 µM", "setting": "CDKL2; CDKL2", "result": 100, "unit": "%"},
      {"measurement": "remaining activity at 0.1 µM", "setting": "DCAMKL2; DCAMKL2", "result": 100, "unit": "%"},
      {"measurement": "remaining activity at 0.1 µM", "setting": "DMPK2; DMPK2", "result": 97, "unit": "%"},
      {"measurement": "remaining activity at 0.1 µM", "setting": "EGFR(S752-I759del); EGFR(S752-I759del)", "result": 100, "unit": "%"},
      {"measurement": "remaining activity at 0.1 µM", "setting": "FER; FER", "result": 100, "unit": "%"},
      {"measurement": "remaining activity at 0.1 µM", "setting": "FLT3; FLT3", "result": 100, "unit": "%"},
      {"measurement": "Percent Control at 100 nM Compound Concentration", "setting": "FLT3(ITD,D835V)", "result": 100, "unit": "%"},
      {"measurement": "remaining activity at 0.1 µM", "setting": "GRK2; GRK2", "result": 96, "unit": "%"},
      {"measurement": "remaining activity at 0.1 µM", "setting": "HIPK1; HIPK1", "result": 72, "unit": "%"},
      {"measurement": "remaining activity at 0.1 µM", "setting": "IRAK1; IRAK1", "result": 91, "unit": "%"},
      {"measurement": "remaining activity at 0.1 µM", "setting": "IRAK4; IRAK4", "result": 91, "unit": "%"},
      {"measurement": "remaining activity at 0.1 µM", "setting": "[1]; JAK2(JH1domain-catalytic)", "result": 100, "unit": "%"},
      {"measurement": "remaining activity at 0.1 µM", "setting": "MAP3K15; MAP3K15", "result": 100, "unit": "%"},
      {"measurement": "remaining activity at 0.1 µM", "setting": "MEK3; MEK3", "result": 94, "unit": "%"},
      {"measurement": "remaining activity at 0.1 µM", "setting": "MLK1; MLK1", "result": 100, "unit": "%"},
      {"measurement": "remaining activity at 0.1 µM", "setting": "MRCKA; MRCKA", "result": 100, "unit": "%"},
      {"measurement": "remaining activity at 0.1 µM", "setting": "PCTK2; PCTK2", "result": 100, "unit": "%"},
      {"measurement": "remaining activity at 0.1 µM", "setting": "PIK3CB; PIK3CB", "result": 100, "unit": "%"},
      {"measurement": "remaining activity at 0.1 µM", "setting": "PRKD2; PRKD2", "result": 79, "unit": "%"},
      {"measurement": "remaining activity at 0.1 µM", "setting": "ROCK1; ROCK1", "result": 100, "unit": "%"},
      {"measurement": "remaining activity at 0.1 µM", "setting": "ROCK2; ROCK2", "result": 100, "unit": "%"},
      {"measurement": "remaining activity at 0.1 µM", "setting": "STK35; STK35", "result": 99, "unit": "%"},
      {"measurement": "remaining activity at 0.1 µM", "setting": "TSSK1B; TSSK1B", "result": 88, "unit": "%"},
      {"measurement": "remaining activity at 0.1 µM", "setting": "ULK1; ULK1", "result": 100, "unit": "%"},
      {"measurement": "remaining activity at 0.1 µM", "setting": "WEE1; WEE1", "result": 92, "unit": "%"},
      {"measurement": "remaining activity at 0.1 µM", "setting": "YSK4; YSK4", "result": 99, "unit": "%"}
    ]},
    {"smiles": "CN(C[C@H](Cc1ccccc1)OP(=O)(O)O)C(=O)c1cncc(C#Cc2cnn(C(F)F)c2)c1", "note": "[Example 19, (S)-1-(5-((1-(difluoromethyl)-1H-pyrazol-4-yl)ethynyl)-N-methylnicotinamido)-3-phenylpropan-2-yl dihydrogen phosphate]", "values": [
      {"measurement": "remaining activity at 0.1 µM", "setting": "ABL2", "result": 98, "unit": "%"},
      {"measurement": "remaining activity at 0.1 µM", "setting": "AMPK-alpha1", "result": 100, "unit": "%"},
      {"measurement": "remaining activity at 0.1 µM", "setting": "AURKC", "result": 100, "unit": "%"},
      {"measurement": "remaining activity at 0.1 µM", "setting": "BLK", "result": 96, "unit": "%"},
      {"measurement": "remaining activity at 0.1 µM", "setting": "CDKL2", "result": 95, "unit": "%"},
      {"measurement": "remaining activity at 0.1 µM", "setting": "DCAMKL2", "result": 100, "unit": "%"},
      {"measurement": "remaining activity at 0.1 µM", "setting": "DMPK2", "result": 96, "unit": "%"},
      {"measurement": "remaining activity at 0.1 µM", "setting": "EGFR(S752-I759del)", "result": 100, "unit": "%"},
      {"measurement": "remaining activity at 0.1 µM", "setting": "FER", "result": 96, "unit": "%"},
      {"measurement": "remaining activity at 0.1 µM", "setting": "FLT3", "result": 100, "unit": "%"},
      {"measurement": "Percent Control at 100 nM Compound Concentration", "setting": "FLT3(ITD,D835V)", "result": 100, "unit": "%"},
      {"measurement": "remaining activity at 0.1 µM", "setting": "GRK2", "result": 79, "unit": "%"},
      {"measurement": "remaining activity at 0.1 µM", "setting": "HIPK1", "result": 82, "unit": "%"},
      {"measurement": "remaining activity at 0.1 µM", "setting": "IRAK1", "result": 86, "unit": "%"},
      {"measurement": "remaining activity at 0.1 µM", "setting": "IRAK4", "result": 83, "unit": "%"},
      {"measurement": "remaining activity at 0.1 µM", "setting": "[1]", "result": 100, "unit": "%"},
      {"measurement": "remaining activity at 0.1 µM", "setting": "MAP3K15", "result": 97, "unit": "%"},
      {"measurement": "remaining activity at 0.1 µM", "setting": "MEK3", "result": 79, "unit": "%"},
      {"measurement": "remaining activity at 0.1 µM", "setting": "MLK1", "result": 96, "unit": "%"},
      {"measurement": "remaining activity at 0.1 µM", "setting": "MRCKA", "result": 100, "unit": "%"},
      {"measurement": "remaining activity at 0.1 µM", "setting": "PCTK2", "result": 100, "unit": "%"},
      {"measurement": "remaining activity at 0.1 µM", "setting": "PIK3CB", "result": 95, "unit": "%"},
      {"measurement": "remaining activity at 0.1 µM", "setting": "PRKD2", "result": 100, "unit": "%"},
      {"measurement": "remaining activity at 0.1 µM", "setting": "ROCK1", "result": 100, "unit": "%"},
      {"measurement": "remaining activity at 0.1 µM", "setting": "ROCK2", "result": 100, "unit": "%"},
      {"measurement": "remaining activity at 0.1 µM", "setting": "STK35", "result": 100, "unit": "%"},
      {"measurement": "remaining activity at 0.1 µM", "setting": "TSSK1B", "result": 76, "unit": "%"},
      {"measurement": "remaining activity at 0.1 µM", "setting": "ULK1", "result": 100, "unit": "%"},
      {"measurement": "remaining activity at 0.1 µM", "setting": "WEE1", "result": 100, "unit": "%"},
      {"measurement": "remaining activity at 0.1 µM", "setting": "YSK4", "result": 90, "unit": "%"}
    ]}
  ]
}
